The record followed here is US9138447B2, “Antimicrobial agent and method for the production thereof” (UNIVERSITY COLLEGE CARDIFF CONSULTANTS LTD., priority 2008, dated 2015).

The experiment deals with methicillin resistant Staphylococcus aureus (MRSA). The experiment in a line: Growth inhibition of MRSA. In kind it is cell-based. The source says: Mupirocin (Pseudomonic acid A, or Bactroban) is the frontline topical antibiotic used to combat skin infections with gram positive bacteria and is also used in the eradication of MRSA from infected people. It was originally produced as Bactroban by GlaxoSmithKline, but now it is available generically within a number of different commercial formulations. MRSA strain 52 is susceptible to both the P. fluorescens mupirocin (Panel A) and Vietnamycin (BVAS; Panel B). However, MRSA strain 49 is representative of a number of emerging S. aureus strains that are resistant to mupirocin (Panel C).

Structures are written as SMILES.

With `C/C(=C\C(=O)OCCCCCCCCC(=O)O)C[C@@H]1OC[C@H](C[C@@H]2O[C@H]2[C@@H](C)[C@H](C)O)[C@@H](O)[C@H]1O` [mupirocin, Mupirocin], the “Growth inhibition of mupirocin resistant MRSA (strain 49)” value (mupirocin resistant strain) is “resistant”. For the same compound, the “Growth inhibition of MRSA strain 52” value (mupirocin susceptible strain, producer bacterium overlay) is given as “susceptible”.
